In the assay the target is SOS1 (Homo sapiens (Human), UniProt Q07889). In words: Ras-SOS interaction assay (HTRF). It is filed as biochemical. The source says:
The ability of any compound of the present disclosure to reduce a Ras protein signaling output by, e.g., interfering or disrupting interaction (or binding) between SOS1 and a Ras protein can be assessed in vitro. For example, the equilibrium interaction of human SOS1 (hSOS1) with human wildtype Kras or K-Ras mutant (e.g., hK-Ras G12C mutant, or hK-RasG12C) can be assessed as a proxy or an indication for a subject compound's ability to inhibit SOS. Detection of such interaction is achieved by measuring homogenous time-resolved fluorescence resonance energy transfer (HTRF) from (i) a fluorescence resonance energy transfer (FRET) donor (e.g., antiGST-Europium) that is bound to GST-tagged K-RasG12C to (ii) a FRET acceptor (e.g., anti-6His-XL665) bound to a His-tagged hSOS1.
The assay buffer can contain 5 mM HEPES pH 7.4, 150 mM NaCl, 10 mM EDTA, 1 mM DTT, 0.05% BSA, 0.0025% (v/v) Igepal and 100 mM KF. A Ras working solution is prepared in assay buffer containing typically 10 nM of the protein construct (e.g., GST-tagged hK-RasG12C) and 2 nM of the FRET donor (e.g., antiGST-Eu(K) from Cisbio, France). A SOS1 working solution is prepared in assay buffer containing typically 10 nM of the protein construct (e.g., His-hSOS1) and 10 nM of the FRET acceptor (e.g., anti-6His-XL665 from Cisbio, France). An inhibitor control solution is prepared in assay buffer containing 10 nM of the FRET acceptor without the SOS1 protein.
A fixed reaction mixture with or without test compound is transferred into a 384-well plate. Ras working solution is added to all wells of the test plate. SOS1 working solution is added to all wells except for those that are subsequently filled the inhibitor control solution. After approximately 60 min incubation, the fluorescence is measured with a M1000Pro plate reader (Tecan) using HTRF detection (excitation 337 nm, emission 1: 620 nm, emission 2: 665 nm). Compounds are tested in duplicates at different concentrations (for example, 10 μM, 2.5 μM, 0.63 μM, 0.16 μM, 0.04 μM, 0.01 μM test compound). The ratiometric data (i.e., emission 2 divided by emission 1) is used to calculate IC50 values against SOS1 using GraphPad Prism (GraphPad software).
A general note: TR-FRET usually uses a lanthanide donor and a delayed reading to cut background.

The mark [1] stands for this setting: K-RasG13D utilized, read-out: IC50 inhibition of SOS.
The mark [2] stands for this setting: K-RasG13D, read-out: IC50 value against SOS1.

Each structure is given as a SMILES string. pIC50: −log10 of the molar value. Where two headings read alike, the source gives them in different places.

SOS1, sequence (Q07889 564-1049): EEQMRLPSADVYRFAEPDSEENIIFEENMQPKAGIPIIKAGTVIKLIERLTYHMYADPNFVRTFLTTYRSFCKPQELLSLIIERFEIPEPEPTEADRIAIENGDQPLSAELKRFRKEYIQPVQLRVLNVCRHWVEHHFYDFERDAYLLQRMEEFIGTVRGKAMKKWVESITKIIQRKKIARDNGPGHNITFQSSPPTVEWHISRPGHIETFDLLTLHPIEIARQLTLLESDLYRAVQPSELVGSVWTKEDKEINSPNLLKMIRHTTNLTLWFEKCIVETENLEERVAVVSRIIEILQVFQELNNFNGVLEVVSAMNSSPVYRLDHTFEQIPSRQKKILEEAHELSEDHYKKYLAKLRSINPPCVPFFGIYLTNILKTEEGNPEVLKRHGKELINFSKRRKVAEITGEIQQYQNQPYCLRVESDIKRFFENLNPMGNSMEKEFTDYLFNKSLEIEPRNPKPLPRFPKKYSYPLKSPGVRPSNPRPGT

For `COc1nc2nc(C)nc(N[C@H](C)c3cccc(C(F)(F)F)c3F)c2cc1N1CCN(C(=O)[C@H]2COCCO2)CC1` [Compound 310, ((R)-1,4-dioxan-2-yl)(4-(4-(((R)-1-(2-fluoro-3-(trifluoromethyl)phenyl)ethyl)amino)-7-methoxy-2-methylpyrido[2,3-d]pyrimidin-6-yl)piperazin-1-yl)methanone], the negative logarithm of the IC50 (pIC50) under setting [1] is greater than 7.00.

Take `COc1nc2nc(OCC3CN(C(C)C)C3)nc(N[C@H](C)c3cccc(C(F)(F)F)c3F)c2cc1C1CCS(=O)(=O)CC1` [Compound 286, (R)-4-(4-((1-(2-fluoro-3-(trifluoromethyl)phenyl)ethyl)amino)-2-((1-isopropylazetidin-3-yl)methoxy)-7-methoxypyrido[2,3-d]pyrimidin-6-yl)tetrahydro-2H-thiopyran 1,1-dioxide]: the pIC50 under setting [1] was 6.00 to 7.00.

Regarding `COc1nc2ncnc(N[C@H](C)c3cccc(C(F)(F)CO)c3F)c2cc1N1CCS(=O)(=O)CC1` [Compound 279, (R)-4-(4-((1-(3-(1,1-difluoro-2-hydroxyethyl)-2-fluorophenyl)ethyl)amino)-7-methoxypyrido[2,3-d]pyrimidin-6-yl)thiomorpholine 1,1-dioxide], the negative-log IC50 (pIC50) under setting [1] was 6.00 to 7.00.

Regarding `COc1nc2nc(C)nc(N[C@H](C)c3cccc(C(F)F)c3F)c2cc1C1CCN(C(=O)NC2CNC2)CC1` [Compound 122, (R)-N-(azetidin-3-yl)-4-(4-((1-(3-(difluoromethyl)-2-fluorophenyl)ethyl)amino)-7-methoxy-2-methylpyrido[2,3-d]pyrimidin-6-yl)piperidine-1-carboxamide], the pIC50 under setting [1] is greater than 7.00 and the negative-log IC50 (pIC50) under setting [2] was greater than 7.30.

`COc1nc2nc(C)nc(N[C@H](C)c3cccc(C(F)(F)F)c3F)c2cc1C1(C#N)CCN(C(C)C)CC1` [Compound 306, (R)-4-(4-((1-(2-fluoro-3-(trifluoromethyl)phenyl)ethyl)amino)-7-methoxy-2-methylpyrido[2,3-d]pyrimidin-6-yl)-1-isopropylpiperidine-4-carbonitrile]: the pIC50 under setting [1] is 6.00 to 7.00.

Take `COc1nc2nc(C)nc(N[C@H](C)c3cc(F)cc(C(F)F)c3F)c2cc1C1CCS(=O)(=O)CC1` [Compound 144, (R)-4-(4-((1-(3-(difluoromethyl)-2,5-difluorophenyl)ethyl)amino)-7-methoxy-2-methylpyrido[2,3-d]pyrimidin-6-yl)tetrahydro-2H-thiopyran 1,1-dioxide]: under setting [1], the pIC50 was 6.00 to 7.00.

For `COc1nc2nc(C)nc(N[C@H](C)c3cccc(C(F)(F)C4CN(C(C)C)C4)c3F)c2cc1C1(C#N)CC1` [Compound 284, (R)-1-(4-((1-(3-(difluoro(1-isopropylazetidin-3-yl)methyl)-2-fluorophenyl)ethyl)amino)-7-methoxy-2-methylpyrido[2,3-d]pyrimidin-6-yl)cyclopropane-1-carbonitrile], the negative logarithm of the IC50 (pIC50) under setting [1] was greater than 7.00.

As for `COc1nc2nc(N3CCC3)nc(N[C@H](C)c3cccc(C(F)F)c3F)c2cc1N1CCN(C(C)C)CC1` [Compound 168, (R)-2-(azetidin-1-yl)-N-(1-(3-(difluoromethyl)-2-fluorophenyl)ethyl)-6-(4-isopropylpiperazin-1-yl)-7-methoxypyrido[2,3-d]pyrimidin-4-amine], the pIC50 under setting [1] is 6.00 to 7.00.

As for `COc1nc2nc(C)nc(N[C@H](C)c3cccc(C(F)F)c3F)c2cc1C1CCNCC1` [Compound 121, (R)—N-(1-(3-(difluoromethyl)-2-fluorophenyl)ethyl)-7-methoxy-2-methyl-6-(piperidin-4-yl)pyrido[2,3-d]pyrimidin-4-amine], the pIC50 is greater than 7.00 under setting [1] and greater than 7.30 under setting [2].

As for `COc1nc2nc(N3CC(N(C)C)C3)nc(N[C@H](C)c3cccc(C(F)F)c3F)c2cc1C1(C#N)CC1` [Compound 237, (R)-1-(4-((1-(3-(difluoromethyl)-2-fluorophenyl)ethyl)amino)-2-(3-(dimethylamino)azetidin-1-yl)-7-methoxypyrido[2,3-d]pyrimidin-6-yl)cyclopropane-1-carbonitrile], under setting [1], the pIC50 was 6.00 to 7.00.

As to `Cc1nc(N[C@H](C)c2cccc(C(F)(F)F)c2C)c2cc(N3CCN(C(C)C)CC3)c(Cl)nc2n1` [Compound 201, (R)-7-chloro-6-(4-isopropylpiperazin-1-yl)-2-methyl-N-(1-(2-methyl-3-(trifluoromethyl)phenyl)ethyl)pyrido[2,3-d]pyrimidin-4-amine], the pIC50 reads like this: under setting [1], greater than 7.00; under setting [2], greater than 7.30.

For the compound `COc1nc2nc(C)nc(N[C@H](C)c3cccc(C(F)F)c3F)c2cc1S(=O)(=O)N1CCN(C)CC1` [Compound 106, (R)—N-(1-(3-(difluoromethyl)-2-fluorophenyl)ethyl)-7-methoxy-2-methyl-6-((4-methylpiperazin-1-yl)sulfonyl)pyrido[2,3-d]pyrimidin-4-amine], the pIC50 under setting [1] is greater than 7.00.

Consider `COc1nc2nc(CCN3CCC3)nc(N[C@H](C)c3cccc(C(F)(F)F)c3C)c2cc1C1(C#N)CC1` [Compound 427, (R)-1-(2-(2-(azetidin-1-yl)ethyl)-7-methoxy-4-((1-(2-methyl-3-(trifluoromethyl)phenyl)ethyl)amino)pyrido[2,3-d]pyrimidin-6-yl) cyclopropane-1-carbonitrile], for which the negative logarithm of the IC50 (pIC50) is greater than 7.00 under setting [1] and greater than 7.30 under setting [2].

As for `Cc1nc(N[C@H](C)c2cccc(C(F)F)c2F)c2cc(C3(C(F)F)CC3)c(OC3COC3)nc2n1` [Compound 186, (R)—N-(1-(3-(difluoromethyl)-2-fluorophenyl)ethyl)-6-(1-(difluoromethyl)cyclopropyl)-2-methyl-7-(oxetan-3-yloxy)pyrido[2,3-d]pyrimidin-4-amine], under setting [1], the pIC50 was greater than 7.00.

Regarding `C[C@@H](Nc1ncnc2nc(OC3COC3)c(C3(C(F)F)CC3)cc12)c1cccc(C(F)F)c1F` [Compound 408, (R)-N-(1-(3-(difluoromethyl)-2-fluorophenyl)ethyl)-6-(1-(difluoromethyl)cyclopropyl)-7-(oxetan-3-yloxy)pyrido[2,3-d]pyrimidin-4-amine], the pIC50 under setting [1] was 6.00 to 7.00.

For `COc1nc2nc(C)nc(N[C@H](C)c3cccc(C(F)F)c3F)c2cc1C1CCN(C(=O)NC2CN(C)C2)CC1` [Compound 124, (R)-4-(4-((1-(3-(difluoromethyl)-2-fluorophenyl)ethyl)amino)-7-methoxy-2-methylpyrido[2,3-d]pyrimidin-6-yl)-N-(1-methylazetidin-3-yl)piperidine-1-carboxamide], the negative-log IC50 (pIC50) was greater than 7.00 under setting [1] and greater than 7.30 under setting [2].

Take `COc1nc2ncnc(N[C@H](C)c3cccc(C(F)F)c3F)c2cc1C1CCN(C2CCOCC2)CC1` [Compound 416, (R)-N-(1-(3-(difluoromethyl)-2-fluorophenyl)ethyl)-7-methoxy-6-(1-(tetrahydro-2H-pyran-4-yl)piperidin-4-yl)pyrido[2,3-d]pyrimidin-4-amine]: the negative logarithm of the IC50 (pIC50) by setting is: under setting [1], greater than 7.00; under setting [2], greater than 7.30.

For the compound `COc1nc2nc(C)nc(N[C@H](C)c3cccc(C(F)F)c3F)c2cc1C1(C#N)CCN(Cc2ccccc2)CC1` [Compound 140, (R)-1-benzyl-4-(4-((1-(3-(difluoromethyl)-2-fluorophenyl)ethyl)amino)-7-methoxy-2-methylpyrido[2,3-d]pyrimidin-6-yl)piperidine-4-carbonitrile], the pIC50 under setting [1] was 6.00 to 7.00.

Consider `Cc1nc(N[C@H](C)c2cccc(C(F)F)c2F)c2cc(C3(C#N)CC3)c(NCC(C)(C)O)nc2n1` [Compound 319, (R)-1-(4-((1-(3-(difluoromethyl)-2-fluorophenyl)ethyl)amino)-7-((2-hydroxy-2-methylpropyl)amino)-2-methylpyrido[2,3-d]pyrimidin-6-yl) cyclopropane-1-carbonitrile], for which, under setting [1], the pIC50 was 6.00 to 7.00.

Turning to `C[C@@H](Nc1ncnc2nc(O[C@H]3CCOC3)c(C3(C#N)CC3)cc12)c1cccc(C(F)F)c1F` [Compound 230, 1-(4-(((R)-1-(3-(difluoromethyl)-2-fluorophenyl)ethyl)amino)-7-(((S)-tetrahydrofuran-3-yl)oxy)pyrido[2,3-d]pyrimidin-6-yl)cyclopropane-1-carbonitrile], the pIC50 under setting [1] was 6.00 to 7.00.

For `COc1nc2nc(C)nc(N[C@H](C)c3cccc(C)c3F)c2cc1[C@H]1C[C@@H](N)C1` [Compound 111, 6-((1s,3S)-3-aminocyclobutyl)-N-((R)-1-(2-fluoro-3-methylphenyl)ethyl)-7-methoxy-2-methylpyrido[2,3-d]pyrimidin-4-amine], the pIC50 under setting [1] is 6.00 to 7.00.

Broadly, the pIC50 is the negative decadic logarithm of the IC50, by convention in mol/L.
